Results on two compounds are retold here after patent publication US20200370012A1, “METHODS OF MAKING CHIMERIC ANTIGEN RECEPTOR-EXPRESSING CELLS” (Novartis AG, priority 2017, published 2020).

One assay has as its system Anti-CD19BBζ CAR T cells. Description: Metabolic modulation of CAR T cells: differentiation phenotype by flow cytometry after 9 days of culture with or without 2-DG. In kind it is cell-based, human. To be noted: FIG. 4 and FIG. 5. The protocol: The following T-cell subsets are shown: naïve-like (CCR7+CD45RO−); central memory (CCR7+CD45RO+); effector memory (CCR7−CD45RO+); and effector (CCR7−CD45RO−). Anti-CD19BBζ CAR T cells were generated as in the presence or absence of the glycolysis inhibitor 2-deoxyglucose (2-DG; Sigma-Aldrich). Following 9 days of culture, the differentiation phenotype of these cells was determined by flow cytometry. CAR+T-cells were sorted on the FACSAria II cell sorter (BD Biosciences) and combined 1:1 with irradiated K562 cells engineered to express CD19 (K562-CD19). CTL019cells were re-stimulated ×3 with K562-CD19 targets. During the proliferation assay, absolute cell counts were obtained using the Luna automated cell counter (Logos Biosystems).
A general note: In flow cytometry, cells or beads pass a laser one at a time.

The target in a further assay is T1, STAT3 (pY705) (Homo sapiens, UniProt P40763).
T1 construct: CTL019 cells from CLL patient infusion products were thawed and stimulated with anti-idiotypic antibody-coated beads or mock beads; endogenous in cells; host or cells: CTL019 (anti-CD19 4-1BB/CD3zeta CAR) T cells made from autologous T cells of CLL patients; in some experiments FACS-sorted CD8+ T cell subsets
T1 sequence (P40763 whole entry, the tested form may be a part): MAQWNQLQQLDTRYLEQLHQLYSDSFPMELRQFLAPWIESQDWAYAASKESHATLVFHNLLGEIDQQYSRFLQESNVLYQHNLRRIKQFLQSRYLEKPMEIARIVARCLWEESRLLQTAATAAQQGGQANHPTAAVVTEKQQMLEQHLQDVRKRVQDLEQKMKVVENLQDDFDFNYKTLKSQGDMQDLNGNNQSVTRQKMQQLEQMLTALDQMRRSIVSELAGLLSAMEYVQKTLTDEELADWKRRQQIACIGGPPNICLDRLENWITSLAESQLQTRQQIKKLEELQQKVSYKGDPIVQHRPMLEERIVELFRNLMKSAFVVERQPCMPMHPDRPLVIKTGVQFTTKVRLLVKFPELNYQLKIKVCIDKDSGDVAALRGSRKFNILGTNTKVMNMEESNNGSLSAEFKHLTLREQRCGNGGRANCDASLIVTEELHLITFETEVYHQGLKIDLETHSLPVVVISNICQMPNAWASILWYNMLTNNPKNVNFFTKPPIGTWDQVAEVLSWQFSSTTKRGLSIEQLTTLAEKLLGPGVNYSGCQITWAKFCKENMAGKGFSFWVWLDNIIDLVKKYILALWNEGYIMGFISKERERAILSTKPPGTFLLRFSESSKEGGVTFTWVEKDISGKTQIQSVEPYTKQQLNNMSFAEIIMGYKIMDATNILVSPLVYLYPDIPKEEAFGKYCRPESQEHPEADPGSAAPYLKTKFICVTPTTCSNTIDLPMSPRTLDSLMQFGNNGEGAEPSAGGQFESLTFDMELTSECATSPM
Description: Measurement of pSTAT3 by Phosflow intracellular staining. In kind it is cell-based. The protocol: FIGS. 7A-7D show IL-6/STAT3 pathway enrichment in CAR T cells. […] Graphs show mean with s.e.m. […] Bars represent the mean and s.e.m. […] Pooled data from patients with highly functional (CR, n=3; PRTD, n=2) versus poorly functional (PR, n=3; NR, n=11) CAR T cells is shown in the box plots (right panel). Whiskers represent min. to max.; boxes represent 25-75 percentiles; the middle line indicates the median. The change in fluorescence intensity (MFI) was calculated by subtracting the […].
FIGS. 11A-11B show levels of pSTAT3 in CD27+ PD-1− CD8 T cells in response to IL-6. […] Summary of IL-6-induced pSTAT3 levels in CD8+ T cell subsets defined by CD27 and PD-1 expression from n=4 different subjects is shown in the right panel. The change in mean fluorescence intensity (AMFI) was determined by subtracting the […].
(§1) CTL019 cells from CLL patient infusion products were thawed and stimulated with anti-idiotypic antibody-coated beads or mock beads. […] The ability of Stattic to inhibit STAT3 signaling was assessed by Phosflow staining as described above. […] Absolute cell numbers and viability were simultaneously measured during the course of CAR T cell expansion using the Luna automated cell counter (Logos Biosystems).

For the next assay, the system named is CTL019 cells. Description: Serial re-stimulation assay with irradiated K562-CD19 cells: CTL019 cells made with or without Stattic or recombinant IL-6 (cell numbers and viability). The format is cell-based, human. To be noted: exogenous IL-6 added to culture media during manufacturing of CTL019 cells; FIG. 9. The protocol:
FIGS. 8A-8C show inhibition of the STAT3 pathway in CAR T cells. […] CAR-specific stimulations were performed in the presence or absence of 5 μM Stattic, a small molecule inhibitor of STAT3 activation. […] CAR T cells from this representative subject were then serially re-stimulated with K562 cells engineered to express CD19 on days 0, 7 and 12 of the culture, as indicated by the arrows.
CTL019 cells from this representative subject were then serially re-stimulated with K562 cells engineered to express CD19 or mesothelin (negative control) on days 0, 7, and 12 of the culture, as indicted by the arrows.
as §1, with “beads. For some experiments, cells were stimulated for 10 minutes with recombinant human IL-6 (Miltenyi Biotec.) at a final concentration of 10 ng/mL. In cell subset evaluation experiments, populations of interest were stained for surface markers and sorted on a FACSAria II cell sorter (BD Biosciences) prior to acute stimulation with IL-6.” for “beads.”

On to `OC[C@H]1O[C@H](O)C[C@@H](O)[C@@H]1O` [2-DG, (4R,5S,6R)-6-(hydroxymethyl)oxane-2,4,5-triol], for which, in the assay with Anti-CD19BBζ CAR T cells (CAR T cells cultured 9 days in presence vs absence of 2-DG), the effector differentiation entry is “decreased”. In addition, the “frequencies of CAR T cells with a central memory phenotype” value in the assay with Anti-CD19BBζ CAR T cells (CCR7+CD45RO+, cultured 9 days in presence vs absence of 2-DG) is on record as “increased”.

Regarding “IL-6: recombinant human IL-6 (Miltenyi Biotec.), a Stat3 activator”, the pSTAT3 activity result with STAT3 (pY705) (exogenous IL-6 added to culture media during manufacturing of CTL019 cells) is “Increasing”. The “pSTAT3 in response to IL-6 stimulation” value with STAT3 (pY705) (sorted CD27+PD-1− CD8+ subset, recombinant IL-6 10 ng/ml, FIG. 11A) is on record as “upregulates”. In the assay with CTL019 cells, the “absolute numbers of CAR T cells following repeated stimulation with CD19-expressing tumor targets” value is on record as “elevated” and the “expansion capacity following repeated stimulation with CD19-expressing tumor targets” value is “elevated”.
